In patent publication US8846675B2, “N-linked heterocyclic receptor agonists for the treatment of diabetes and metabolic disorders” (Cymabay Therapeutics, Inc., priority 2007, dated 2014):
Counter-ions that a name gives are not always drawn.

Biological target: T1, IC-GPCR2 (Homo sapiens, UniProt Q8TDV5)
T1 construct: expressed in transfected cells
T1 sequence (Q8TDV5 1-335 S309L): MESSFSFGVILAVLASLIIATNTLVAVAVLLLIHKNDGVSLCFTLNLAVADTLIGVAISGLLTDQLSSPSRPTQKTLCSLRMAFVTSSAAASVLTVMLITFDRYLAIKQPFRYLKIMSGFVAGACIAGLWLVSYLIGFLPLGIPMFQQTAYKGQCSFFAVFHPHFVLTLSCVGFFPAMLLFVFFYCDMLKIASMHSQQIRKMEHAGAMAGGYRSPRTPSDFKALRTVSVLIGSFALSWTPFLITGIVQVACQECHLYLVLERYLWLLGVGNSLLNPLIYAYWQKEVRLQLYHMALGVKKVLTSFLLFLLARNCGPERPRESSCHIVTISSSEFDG
Assay: Stimulation of cAMP in CHO cell line stably expressing IC-GPCR2 (HTRF cAMP dynamic kit)
Assay type: cell-based
Conditions: 3 μM compound; relative to maximal activity of 5-Ethyl-2-{4-[4-(4-tetrazol-1-yl-phenoxymethyl)-thiazol-2-yl]-piperidin-1-yl}-pyrimidine (=100%); IC-GPCR2 stably expressing CHO cells, 30 minutes
Procedure, shortened: (§1)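 CHO cells stably expressing IC-GPCR2, with parental CHO as counter-screen, were exposed to compound (0.00003–10 μM) for 30 min in Ham's F12. Intracellular cAMP read by HTRF competitive immunoassay (665/620 nm ratio). Activity at 3 μM expressed as % of maximal signal from a reference agonist.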

Compound	% activity at 3 μM
O=C1CCCN1c1ccc(OCc2cnn(C3CCN(c4ncc(C(F)(F)F)cn4)CC3)n2)cc1 [Example 99, 1-(4-{2-[1-(5-Trifluoromethyl-pyrimidin-2-yl)-piperidin-4-yl]-2H-[1,2,3]triazol-4-ylmethoxy}-phenyl)-pyrrolidin-2-one]	56.81%
COc1ccc(-c2cnc(N3CCC(n4ncc(COc5ccc(-n6cnnn6)nc5)n4)CC3)nc2)cc1 [Example 80, 2-(4-(4-((6-(1H-tetrazol-1-yl)pyridin-3-yloxy)methyl)-2H-1,2,3-triazol-2-yl)piperidin-1-yl)-5-(4-methoxyphenyl)pyrimidine]	77.53%
CC(C)OC(=O)N1CCC(n2ncc(COc3ccc(-n4cnnn4)cc3F)n2)CC1 [Example 37, Isopropyl 4-(4-((2-fluoro-4-(1H-tetrazol-1-yl)phenoxy)methyl)-2H-1,2,3-triazol-2-yl)piperidine-1-carboxylate]	62.88%
CCOC(=O)c1cnc(N2CCC(n3ncc(COc4ccc(-n5cnnn5)cc4F)n3)CC2)nc1 [Example 106, Ethyl 2-(4-(4-((2-fluoro-4-(1H-tetrazol-1-yl)phenoxy)methyl)-2H-1,2,3-triazol-2-yl)piperidin-1-yl)pyrimidine-5-carboxylate]	11.46%
Cc1sc(OCc2cnn(C3CCN(c4ncc(Cl)cn4)CC3)n2)nc1-c1cccnc1 [Example 90, 2-((2-(1-(5-Chloropyrimidin-2-yl)piperidin-4-yl)-2H-1,2,3-triazol-4-yl)methoxy)-5-methyl-4-(pyridin-3-yl)thiazole]	13.60%
CC1CN(c2ncc(C(F)(F)F)cn2)CCC1n1ncc(COc2ccc(-n3cnnn3)nc2)n1 (centres unmarked) [Example 84, 2-(4-(4-((6-(1H-Tetrazol-1-yl)pyridin-3-yloxy)methyl)-2H-1,2,3-triazol-2-yl)-3-methylpiperidin-1-yl)-5-(trifluoromethyl)pyrimidine]	78.05%
Cc1cccnc1C(=O)N1CCC(n2ncc(COc3ccc(-n4cnnn4)cc3F)n2)CC1 [Example 111, (4-(4-((2-Fluoro-4-(1H-tetrazol-1-yl)phenoxy)methyl)-2H-1,2,3-triazol-2-yl)piperidin-1-yl)(3-methylpyridin-2-yl)methanone]	24.12%
CCc1cnc(N2CCC(n3cnc(COc4ccc(S(C)(=O)=O)cc4F)n3)CC2)nc1 [Example 9, 5-Ethyl-2-{4-[3-(2-fluoro-4-methanesulfonyl-phenoxymethyl)-[1,2,4]triazol-1-yl]-piperidin-1-yl}-pyrimidine]	65.75%
O=C(c1cccc(O)n1)N1CCC(n2ncc(COc3ccc(-n4cnnn4)cc3F)n2)CC1 [Example 109, (4-(4-((2-Fluoro-4-(1H-tetrazol-1-yl)phenoxy)methyl)-2H-1,2,3-triazol-2-yl)piperidin-1-yl)(6-hydroxypyridin-2-yl)methanone]	7.45%
CC(C)(C)OC(=O)N[C@H](CC(=O)N1CCC(n2ncc(COc3ccc(-n4cnnn4)nc3)n2)CC1)Cc1cc(F)c(F)cc1F [Example 56, (S)-tert-Butyl 4-(4-(4-((6-(1H-tetrazol-1-yl)pyridin-3-yloxy)methyl)-2H-1,2,3-triazol-2-yl)piperidin-1-yl)-4-oxo-1-(2,4,5-trifluorophenyl)butan-2-ylcarbamate]	7.31%
CC1CN(c2ncc(Cl)cn2)CCC1n1ncc(COc2ccc(-n3cnnn3)nc2)n1 (centres unmarked) [Example 87, 2-(4-(4-((6-(1H-Tetrazol-1-yl)pyridin-3-yloxy)methyl)-2H-1,2,3-triazol-2-yl)-3-methylpiperidin-1-yl)-5-chloropyrimidine]	75.63%
N[C@H](CC(=O)N1CCC(n2ncc(COc3ccc(-n4cnnn4)nc3)n2)CC1)Cc1cc(F)c(F)cc1F [Example 57, (S)-1-(4-(4-((6-(1H-tetrazol-1-yl)pyridin-3-yloxy)methyl)-2H-1,2,3-triazol-2-yl)piperidin-1-yl)-3-amino-4-(2,4,5-trifluorophenyl)butan-1-one hydrochloride]	27.80%
O=S(=O)(Cc1ccccc1)N1CCC(n2ncc(COc3ccc(-n4cnnn4)nc3)n2)CC1 [Example 47, 5-((2-(1-(Benzylsulfonyl)piperidin-4-yl)-2H-1,2,3-triazol-4-yl)methoxy)-2-(1H-tetrazol-1-yl)pyridine]	74.90%
CCc1cnc(N2CCC(n3cc(COc4ccc(-n5cnnn5)cc4)cn3)CC2)nc1 [Example 18, 2-(4-(4-((4-(1H-tetrazol-1-yl)phenoxy)methyl)-1H-pyrazol-1-yl)piperidin-1-yl)-5-ethylpyrimidine]	77.67%

Biological target: T2, IC-GPCR2 (Homo sapiens, UniProt Q8TDV5, S309L)
T2 construct: expressed in transfected cells
T2 sequence (Q8TDV5 1-335 S309L): T1 sequence (Q8TDV5 1-335 S309L)
Assay: as above
Assay type: cell-based
Conditions: 3 μM compound; IC-GPCR2 stably expressing CHO cells; not included in Table 1
Procedure, shortened: as §1

Compound	activity when tested at 3 μM (in words)
Cn1nc(OCc2cnn(C3CCN(c4ncc(Cl)cn4)CC3)n2)cc1C(F)(F)F [Example 97, 5-Chloro-2-{4-[4-(1-methyl-5-trifluoromethyl-1H-pyrazol-3-yloxymethyl)-[1,2,3]-triazol-2-yl]-piperidin-1-yl}-pyrimidine]	did not exhibit activity
C[C@H](NC(=O)OC(C)(C)C)C(=O)N1CCC(n2ncc(COc3ccc(-n4cnnn4)nc3)n2)CC1 [Example 53, (S)-tert-Butyl 1-(4-(4-((6-(1H-tetrazol-1-yl)pyridin-3-yloxy)methyl)-2H-1,2,3-triazol-2-yl)piperidin-1-yl)-1-oxopropan-2-ylcarbamate]	did not exhibit activity
Cc1noc(C)c1S(=O)(=O)N1CCC(n2ncc(COc3ccc(-n4cnnn4)nc3)n2)CC1 [Example 43, 4-(4-(4-((6-(1H-Tetrazol-1-yl)pyridin-3-yloxy)methyl)-2H-1,2,3-triazol-2-yl)piperidin-1-ylsulfonyl)-3,5-dimethylisoxazole]	did not exhibit activity
Cn1cnc(S(=O)(=O)N2CCC(n3ncc(COc4ccc(-n5cnnn5)nc4)n3)CC2)c1 [Example 42, 5-((2-(1-(1-Methyl-1H-imidazol-4-ylsulfonyl)piperidin-4-yl)-2H-1,2,3-triazol-4-yl)methoxy)-2-(1H-tetrazol-1-yl)pyridine]	did not exhibit activity
COC(=O)c1cc(C)nc(N2CCC(n3ncc(COc4ccc(-n5cnnn5)nc4)n3)CC2)n1 [Example 79, Methyl 2-(4-(4-((6-(1H-tetrazol-1-yl)pyridin-3-yloxy)methyl)-2H-1,2,3-triazol-2-yl)piperidin-1-yl)-6-methylpyrimidine-4-carboxylate]	did not exhibit activity
Cc1nc(C)c(S(=O)(=O)N2CCC(n3ncc(COc4ccc(-n5cnnn5)nc4)n3)CC2)s1 [Example 39, 5-(4-(4-((6-(1H-Tetrazol-1-yl)pyridin-3-yloxy)methyl)-2H-1,2,3-triazol-2-yl)piperidin-1-ylsulfonyl)-2,4-dimethylthiazole]	did not exhibit activity
